# Experimental data published in patent US20240366624A1, “METHODS AND COMPOSITIONS FOR TREATING THROMBOTIC DISEASE” (Washington University, priority 2023, published 2024).
# “Also recorded” adds a separate entry of the source. Like-named read-outs stand apart in the source and are kept apart here.
# Key:
# [1] = target: T1, ERO1α (Homo sapiens, UniProt Q96HE7); assay: ERO1α activity assay; type: biochemical
# T1 sequence (Q96HE7 24-468): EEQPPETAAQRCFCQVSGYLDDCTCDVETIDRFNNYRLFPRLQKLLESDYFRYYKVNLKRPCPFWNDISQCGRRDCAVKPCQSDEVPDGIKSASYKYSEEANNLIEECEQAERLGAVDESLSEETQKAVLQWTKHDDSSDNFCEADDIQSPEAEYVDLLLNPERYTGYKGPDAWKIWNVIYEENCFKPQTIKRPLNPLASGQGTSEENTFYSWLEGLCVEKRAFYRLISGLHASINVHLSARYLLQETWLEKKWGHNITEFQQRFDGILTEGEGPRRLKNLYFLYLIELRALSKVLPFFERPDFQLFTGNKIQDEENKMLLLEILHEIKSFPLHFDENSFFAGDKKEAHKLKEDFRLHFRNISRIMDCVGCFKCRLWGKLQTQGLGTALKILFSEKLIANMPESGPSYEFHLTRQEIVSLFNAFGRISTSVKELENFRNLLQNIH
# Source text: FIG. 17(A-F) is an exemplary embodiment of identification of novel ERO1α inhibitors by high throughput screening in accordance with the present disclosure. FIG. 17A: A scheme of an ERO1α activity assay. FIG. 17B: Screening of chemical libraries in the ERO1α activity assay. FIG. 17C: The inhibitory effect of selected compounds on ERO1α activity. FIG. 17D: The inhibitory effect of selected compounds on PDI activity. FIG. 17E: The inhibitory effect of selected compounds on H2O2 activity. FIG. 17F: The inhibitory effect of selected compounds on thiol-reacting activity. The data represent the mean±SD (n=3). *P<0.05, **P<0.01, ***P<0.001, and ****P<0.0001 vs. vehicle control, Student's t-test.
# To identify a novel ERO1α inhibitor, 5800 compounds were screened using an ERO1α activity assay (FIG. 17A and FIG. 17B). […] The selected compounds were further tested in assays measuring PDI, antioxidant, and thiol-reacting activities (FIG. 17D through FIG. 17F). […] B12 inhibited P-selectin exposure and αIIbβ3 activation in agonist-activated mouse and human platelets in a concentration-dependent manner (FIG. 18B through FIG. 18E).
# [2] = test system: WT (C57BL/6) mice; assay: Intravital microscopy, laser-induced cremaster arteriolar injury, WT mice; type: in vivo, mouse; settings: iv 5 μg/g BW
# Description: Intravital microscopy was performed in a mouse model of laser-induced cremaster arteriolar injury as previously described. WT (C57BL/6), littermate WT control, and CKO and KO male mice (8-10 weeks old) were anesthetized with intraperitoneal injection of ketamine and xylazine. The cremaster muscle was exteriorized and superfused with 37° C. bicarbonate-buffered saline throughout the experiment. Arteriolar wall injury was induced by laser ablation (Photonics Instruments) as previously described. Multiple thrombi were generated in at least 3 to 4 different arterioles of 1 mouse, with new thrombi formed upstream of earlier thrombi to minimize any contribution from thrombi generated earlier in the mouse. Platelets and fibrin were visualized by infusion of DyLight 649-conjugated anti-CD42c (0.2 μg/g body weight [BW]) and Alexa Fluor 488-conjugated anti-fibrin (0.2 μg/g BW) antibodies, respectively. To detect extracellular Ero1α, Alexa Fluor 488-conjugated rabbit IgG or nonblocking anti-ERO1α antibodies (0.3 μg/g BW) were injected into WT (C57BL/6), WT control, Ero1α KO, and Ero1α CKO mice. In some experiments, wtERO1α or activity-null ERO1α-Cys94Ser (mutant ERO1α [mERO1α]; 4 μg/g BW) was infused into Ero1α KO mice before imaging. To test the effect of ERO1α inhibitors or blocking anti-ERO1α antibodies, WT (C57BL/6) mice were treated with intravenous injection of vehicle control, eptifibatide (5 μg/g BW), B12-5 (5 μg/g BW), isotype control IgGs, anti-ERO1α (15E9, 1-3 μg/g BW), or anti-PDI (BD34, 3 μg/g BW) 3 minutes before treatment with the anti-CD42c and anti-fibrin antibodies. The same dose of eptifibatide was injected every 20 minutes to maintain the inhibitory effect. […] Fluorescence and bright-field images were captured in 6 to 10 different cremaster arterioles with a diameter of 30 to 45 μm in each mouse and recorded using either an Olympus BX61W microscope with a 60×1.0 salt water immersion objective or a Zeiss Axio Examiner Z1 microscope system with a Yokogawa confocal spinning disk (CSU-W1) equipped with 4 stack laser system (405-, 488-, 561-, and 637-nm wavelengths). Images were collected with a high-speed, high-resolution camera (2304×2304 pixel format; ORCA-Fusion BT sCMOS, Hamamatsu). Time 0 was set to when image capture began on each vessel. The data were analyzed using Slidebook (version 6.0; Intelligent Imaging Innovations). Due to the significant variation between vessels in the same mouse, the result from each vessel was counted as an individual value. Representative images were chosen that most closely resemble the mean values in the quantifications.
# [3] = test system: platelets; assay: Platelet activation and aggregation, platelet source not stated; type: cell-based; settings: 5-10 microM
# Source text: As described herein, small molecule ERO1α inhibitors were identified by performing a high throughput screen using a ChemDiv library. […] Furthermore, intravenous injection of B112-5 reduced the infarct volume in a mouse model of ischemic stroke.
# [4] = test system: mouse platelets; assay: Ca2+ mobilization (FLIPR), mouse platelets; type: cell-based
# Description: FIG. 15 is an exemplary embodiment of EN460 affecting the basal level of cytosolic Ca2+ and inhibiting Ca2+ mobilization in accordance with the present disclosure. WT mouse platelets were pretreated with vehicle (0.1% DMSO) or 5-10 μM EN460, followed by measuring Ca2+ release and influx after stimulation with 2 μM A23187 and the addition of 1 mM CaCl2). The data represent the mean±SD (n=3). P values determined by ANOVA and Dunnett's test.
# Ca^2+ mobilization was measured as described previously. WT control and Ero1α-null platelets (1×10^8/mL) were suspended in HEPES-Tyrode buffer, pH 7.4. Cells were incubated with a Ca^2+ dye (FLIPR Ca^2+5 assay kit; Molecular Devices) for 30 minutes at 37° C. in the dark, followed by stimulation with thrombin (0.1 U/mL), A23187 (2 μM) or thapsigargin (10-20 μM). After measuring Ca^2+ release, 1 mM CaCl2) was immediately added to assess Ca^2+ influx. In other experiments, Ca^2+ dye-labeled human and WT mouse platelets were incubated with a vehicle or an inhibitor for 10 minutes at 37° C. Cytosolic Ca^2+ levels were measured using a FlexStation3 microplate reader with an excitation wavelength of 485 nm and an emission wavelength of 525 nm. Ca^2+ mobilization was quantified by the area under the curve and expressed as a relative fluorescence unit.
# [5] = test system: platelets; settings: 10 to 33 μM, recent study; cited from earlier work
Compound,"IC50 ([1]; read-out: IC50, ERO1α activity) [µM]","IC50 ([1]; read-out: IC50, ERO1α inhibitor) [µM]",platelet thrombus formation [2],platelet thrombus formation ([2]; listed as B112-5),platelet activation and aggregation [3],"Ca2+ release and influx ([4]; mouse platelets, thrombin or A23187)",thrombin-induced platelet aggregation [5],"Ca2+ release and influx ([4]; A23187 stimulation, 5-10 μM)","basal level of cytosolic Ca2+ ([4]; concentration-dependent, 5-10 μM, 3 to 10 μM)"
O=C(CSc1nc(O)cc(O)n1)N1c2ccccc2Sc2ccccc21 [B12-5],7.9,7.9,significantly inhibited; also recorded: significantly reduced,inhibit,significantly inhibited,dose dependently inhibited,–,–,–
O=C(O)c1cc(N2N=C(C(F)(F)F)/C(=C/c3ccc(-c4ccccc4)o3)C2=O)ccc1Cl [EN460],–,–,–,–,–,–,significantly blocks,diminished,increased
